In PubChem BioAssay (NCI):
Values joined by “and” are separate entries in the source; they are usually repeats but may differ in a detail not shown here. Equal entries are not always repeated.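 Where inhibition never reached the appropriate level, the endpoint shown equals the highest concentration tested. Otherwise, values were interpolated linearly from a five-concentration, 48-hour dose response in 96-well plates. Abbreviation: GI50, concentration required for 50% inhibition of growth. TGI: concentration producing complete growth inhibition.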

Tests used:
Assay in all cases: inhibition of tumour cell growth, NCI panel, 48 h
786-0 renal = system: 786-0 renal
CCRF-CEM leukemia = system: CCRF-CEM leukemia
DU-145 prostate = system: DU-145 prostate
NCI-H226 lung = system: NCI-H226 lung
NCI-H460 lung = system: NCI-H460 lung
NCI/ADR-RES ovarian = system: NCI/ADR-RES ovarian
OVCAR-3 ovarian = system: OVCAR-3 ovarian
SNB-19 CNS = system: SNB-19 CNS
SW-620 colon = system: SW-620 colon
UACC-257 melanoma = system: UACC-257 melanoma

Structure (SMILES)	TGI (786-0 renal)	TGI (CCRF-CEM leukemia)	TGI (DU-145 prostate)	TGI (NCI-H226 lung)	TGI (NCI-H460 lung)	TGI (NCI/ADR-RES ovarian)	TGI (OVCAR-3 ovarian)	TGI (SNB-19 CNS)	TGI (SW-620 colon)	TGI (UACC-257 melanoma)	GI50 (786-0 renal)	GI50 (CCRF-CEM leukemia)	GI50 (DU-145 prostate)	GI50 (NCI-H226 lung)	GI50 (NCI-H460 lung)	GI50 (NCI/ADR-RES ovarian)	GI50 (OVCAR-3 ovarian)	GI50 (SNB-19 CNS)	GI50 (SW-620 colon)	GI50 (UACC-257 melanoma)
Cc1ccc(S(=O)(=O)NNC(=O)c2cc(C)c(C)cc2N)cc1	> 100 µM	> 100 µM	> 100 µM	> 100 µM	> 100 µM	> 100 µM	> 100 µM	> 100 µM	> 100 µM	> 100 µM	–	–	–	–	–	–	–	–	–	–
COc1ccc2nc3cc([N+](=O)[O-])ccc3c(NCCCN(C)C)c2c1	1.28 µM	4.31 µM	11.9 µM	2.42 µM	1.5 µM	14.2 µM	7.86 µM	2.61 µM	1.39 µM	4.41 µM	0.174 µM	0.557 µM	0.175 µM	0.251 µM	0.0409 µM	2.46 µM	0.594 µM	0.299 µM	0.067 µM	1.71 µM
N#CCN/C=C\C(=O)c1ccc(Cl)cc1	> 100 µM	> 100 µM	> 100 µM	> 100 µM	> 100 µM	79.5 µM	59.1 µM	> 100 µM	> 100 µM	> 100 µM	33.4 µM	0.398 µM	41.4 µM	30 µM	42.1 µM	28.9 µM	17.7 µM	31.4 µM	37.8 µM	31.9 µM
CCN(CC)CCCNC(=O)c1c2c(n3ccccc13)C(=O)c1ncccc1C2=O	7.9 µM	> 100 µM	2.56 µM	–	1.75 µM	23.4 µM	0.938 µM	2.67 µM	1.67 µM	1.71 µM	0.904 µM	2.21 µM	1.23 µM	–	0.225 µM	3.02 µM	0.134 µM	1.09 µM	0.367 µM	0.491 µM
CC1(CCC(=O)OC2CCCCC2)OCCO1	> 100 µM	> 100 µM	> 100 µM	> 100 µM	> 100 µM	> 100 µM	> 100 µM	> 100 µM	> 100 µM	> 100 µM	–	–	–	–	–	–	–	–	–	–
CNC(=O)Cc1nc(-c2cccc(NS(=O)(=O)c3c(F)cccc3F)c2F)c(-c2ccnc(Nc3ccccc3)n2)s1	> 50 µM	> 50 µM	> 50 µM	> 50 µM	> 50 µM	> 50 µM	> 50 µM	> 50 µM	> 50 µM	–	10.1 µM	11.3 µM	12.6 µM	8.73 µM	14.8 µM	> 50 µM	12.9 µM	14.3 µM	9.54 µM	0.0142 µM
O=C(/C=C/c1ccccc1)n1c(-c2ccc(Cl)cc2)nc2ccccc21	7.63 µM	3.45 µM	4.93 µM	6 µM	3.5 µM	61.3 µM	2.64 µM	12.8 µM	5.03 µM	3.42 µM	2.05 µM	0.731 µM	1.8 µM	2.17 µM	1.53 µM	1.49 µM	1.11 µM	3.13 µM	1.45 µM	1.47 µM
CCN(CC)CCCC(C)N=C(C1=C(C(=NC(C)CCCN(CC)CC)c2cccc(OC)c2)C(=O)NC1=O)c1cccc(OC)c1 (centres undefined)	7.86 µM	7.47 µM	5.03 µM	13.6 µM	2.13 µM	12.2 µM	4.11 µM	16.4 µM	2.38 µM	1.75 µM	1.8 µM	1.49 µM	1.54 µM	2.83 µM	0.841 µM	2.84 µM	1.45 µM	3.71 µM	0.71 µM	0.952 µM
C=C1CCC2C(C)(COC(=O)CC)C(OC(=O)CC)CCC2(C)C1C/C=C1/C(=O)OCC1OC(=O)CC (centres undefined)	3.48 µM	> 100 µM	3.25 µM	4.1 µM	3.59 µM	10.5 µM	3.15 µM	14.7 µM	2.44 µM	2.7 µM	1.9 µM	0.558 µM	1.82 µM	2.13 µM	1.98 µM	2.84 µM	1.77 µM	3.74 µM	1.17 µM	1.33 µM
COC(=O)c1cc(O)c2c(c1C(=O)OC)C[C@H]1[C@@H]3CC=C4C[C@@H](O)CC[C@]4(C)[C@H]3CC[C@]21C	6.7 µM	4.99 µM	16.1 µM	20 µM	12.7 µM	24.4 µM	4.94 µM	23.8 µM	17.6 µM	7.5 µM	2.42 µM	1.71 µM	3.89 µM	3.78 µM	3.24 µM	3.61 µM	2.19 µM	4.1 µM	3.48 µM	2.54 µM
Cc1sc2c(c1C)C(c1ccc(Cl)cc1)=N[C@@H](CC(=O)OC(C)(C)C)c1nnc(C)n1-2	19.9 µM and 18.9 µM	23 µM and 22.9 µM	33.3 µM and 22.1 µM	22 µM and 22.8 µM	22.6 µM and 19 µM	24 µM and 20.9 µM	18 µM and 15.6 µM	> 47.2 µM and 18.9 µM	28.1 µM and 22.9 µM	19.5 µM and 17 µM	0.605 µM and 0.841 µM	0.644 µM and 0.773 µM	13.4 µM and 8.51 µM	2.81 µM and 10.3 µM	1.55 µM and 0.603 µM	0.506 µM and 0.396 µM	1.24 µM and 0.498 µM	0.629 µM and 0.421 µM	10.9 µM and 4.09 µM	0.313 µM and 0.146 µM
CCOC(=O)CC1C(COC(=O)NC)OC(n2cnc3c(NC(=O)Nc4ccccc4)ncnc32)C1O[Si](C)(C)C(C)(C)C (centres undefined)	21.5 µM	> 100 µM	28.2 µM	36.6 µM	17.2 µM	30.6 µM	5.6 µM	> 100 µM	78.1 µM	> 100 µM	7.94 µM	3.23 µM	5.21 µM	11.8 µM	4.45 µM	9.18 µM	2.42 µM	49.2 µM	4.59 µM	20.8 µM
COc1ccc2c(c1)CC[C@H](O)/C2=C/c1cc(OC)c(OC)c(OC)c1	> 100 µM	> 100 µM	> 100 µM	> 100 µM	> 36.8 µM	–	> 100 µM	> 100 µM	> 100 µM	–	0.156 µM	0.273 µM	0.156 µM	2.95 µM	0.107 µM	0.0639 µM	0.0757 µM	0.201 µM	0.0739 µM	–
